{"source": "patent US9211311B2", "about": "“Methods for the treatment of neurodegenerative disorders” (priority 2010, dated 2015)", "system": "male patients exhibiting PD-induced symptoms", "test": "Motor portion of the Unified Parkinson's Disease Rating Scale (UPDRS) before and after intranasal oxytocin", "assay_type": "in vivo, human", "settings": "40 IU intranasal oxytocin; for UPDRS total score after oxytocin therapy: off medications, reassessed 45 minutes to one hour after dosing, items rated 0-4, lower = less severe", "experimental": "The participants were in their “off” period, wherein they were taken off their current medications prior to oxytocin therapy. During the experiment, each participant was given 40 IU ([…]) of intranasal oxytocin. The synthetic form of oxytocin was administered by way of an inhaler, such as those used in nasal spray decongestants. Five pumps of the inhaler were dispensed into the left nostril of the participants; the participants were asked to inhale deeply through the nose. Five more pumps were dispensed into the right nostril of the participants and again the participants were asked to inhale deeply. This process was repeated so that, in total, the participants received forty pumps of the inhaler, twenty per nostril.\nImmediately following oxytocin infusion, the participants were given a battery of physical and cognitive tests, lasting about fifteen to twenty minutes. These tests included the Motor portion of the Unified Parkinson's Disease Rating Scale (UPDRS) as well as a cognitive test used to establish the mental and emotional status of the participants. For each test, the participants were rated on a scale of zero to four, with four being the symptoms at its most severe state.\nAfter administration of oxytocin, the participants were asked to wait for 45 minutes to one hour, wherein they passed the time by reading, conversing or simply relaxing. Subsequently, the motor skills of the participants were assessed again using the UPDRS. The administration of the UPDRS the first time was to quantifiably evaluate the patient's symptoms uninfluenced by oxytocin infusion, whereas the second administration of the UPDRS test served to quantifiably assess the motor condition of the patient under the influence of oxytocin.\nThe participants remained under direct supervision throughout the experiment to ensure their comfort and well-being. Once the experimental procedure was completed, the participants were able to leave the clinic and were asked to continue taking their normal medications. The participants were not in any way restricted in their activities for the rest of the day.", "data": [{"compound": "CC[C@H](C)[C@@H]1NC(=O)[C@H](Cc2ccc(O)cc2)NC(=O)[C@@H](N)CSSC[C@@H](C(=O)N2CCC[C@H]2C(=O)N[C@@H](CC(C)C)C(=O)NCC(N)=O)NC(=O)[C@H](CC(N)=O)NC(=O)[C@H](CCC(N)=O)NC1=O", "note": "[oxytocin]", "values": [{"measurement": "UPDRS total score after oxytocin therapy", "setting": "participant 1, initial total score 24", "value": 17}, {"measurement": "decrease in UPDRS total score after oxytocin therapy", "setting": "participant 1, versus initial total score 24", "value": 30, "unit": "%"}, {"measurement": "UPDRS total score after oxytocin therapy", "setting": "participant 2, initial total score 37.5", "value": 34.5}, {"measurement": "decrease in UPDRS total score after oxytocin therapy", "setting": "participant 2, versus initial total score 37.5", "value": 8, "unit": "%"}, {"measurement": "UPDRS total score after oxytocin therapy", "setting": "participant 3, initial total score 17.5", "value": 9.5}, {"measurement": "decrease in UPDRS total score after oxytocin therapy", "setting": "participant 3, versus initial total score 17.5", "value": 50, "unit": "%"}, {"measurement": "lasting effects due to the administration of oxytocin", "setting": "three male PD patients, observed under supervision throughout the experiment", "value": "not any lasting effects apparent"}]}]}
